Data reported in patent JP2023117892A, “ヘプシジン結合ペプチド” (Public Interest Inc Foundation Oyokyo, priority 2022, dated 2023).
Positions of bridges follow the written chain, without caps; N, C: chain ends. Residues, ends and D or L forms follow the SMILES beside them. No end group written: not given here.

Experiments:
[1] = system: COS-1 cells, monkey kidney-derived fibroblasts (サル腎臓由来線維芽細胞(COS-1)); experiment: Intracellular iron (ferritin ELISA) in FPN-EGFP-expressing COS-1 cells treated with hepcidin; type: cell-based; conditions: COS-1 expressing FPN-EGFP, Fig. 7B
[2] = system: C57/BL6 mice (マウス(C57/BL6)); experiment: Serum iron in mice given hepcidin; type: in vivo, mouse; conditions: Fig. 7C
[3] = system: HepG2 cells, human liver cancer-derived (ヒト肝癌由来細胞HepG2); experiment: Intracellular iron (ferritin ELISA) in HepG2 cells treated with hepcidin; type: cell-based; conditions: Fig. 7A
[4] = system: human ferroportin fused to EGFP (FPN-EGFP) (ヒトのフェロポーチン(FPN)にEGFPを融合させたタンパク質); experiment: Western blot of ferroportin (FPN-EGFP) in HEK293 cells treated with hepcidin; type: cell-based; conditions: HEK293 expressing FPN-EGFP
hepcidin (ヘプシジン) [5] = molecular target: T1, hepcidin (ヘプシジン) (Homo sapiens, UniProt P81172); experiment: Binding of the 12-amino-acid peptide to hepcidin, linear versus cyclised
T1 sequence (P81172 60-84 limits assumed): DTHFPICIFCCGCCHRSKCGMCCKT

hepcidin (ヘプシジン) [6] = molecular target: T1, hepcidin (ヘプシジン); experiment: Phage display screening (Ph.D-12 library) on hepcidin-immobilised beads; type: binding; design: ビオチン化ヘプシジン(Bachem社製); purchased Bachem; conditions: displayed on M13 phage pIII; most frequent sequence among 64 plaques after the 5th panning
[7] = system: renal anemia model mice (腎性貧血モデルマウス); experiment: Effect of HBP in renal anemia model mice (adenine sulfate-induced renal failure); type: in vivo, mouse
hepcidin (ヘプシジン) [8] = molecular target: T1, hepcidin (ヘプシジン); experiment: Bio-layer interferometry (BLI) of the peptide on biotinylated hepcidin (Octet K2); type: binding; design: ビオチン化ヘプシジン(Bachem社製); purchased Bachem; conditions: peptide 2.5, 4, 6, 8 or 10 μM
[9] = peptide added simultaneously with hepcidin
[10] = AdS-induced renal anemia mice, HBP day 15 to day 21 (7 times), blood on day 22, versus control (PBS), Fig. 4C-E

## ヘプシジン: human hepcidin (Peptide Institute, Inc.) (DTHFPICIFCCGCCHRSKCGMCCKT; ends and bridges not checked; cysteine pairing not given here; UniProt P81172 60-84, looked up) [reference compound]
[1]; hepcidin alone
  intracellular iron (as ferritin): 細胞内の鉄量は増加した
[2]; hepcidin alone
  serum iron: 血中の鉄量は減少した
[3]; hepcidin alone
  intracellular iron (as ferritin): 細胞内の鉄量は増加した
[4]; hepcidin added alone, Fig. 6 lane 3
  amount of ferroportin (FPN-EGFP): フェロポーチンの量(FPN-EGFP量)は低下した

## WDMWPSMDWKAE
Hepcidin (ヘプシジン) [5]; cyclised form
  binding to hepcidin: ヘプシジンに特異的に結合する
Hepcidin (ヘプシジン) [5]; linear form
  binding to hepcidin: 線状ではヘプシジンに結合しない
Hepcidin (ヘプシジン) [6]
  possibility of specific binding to hepcidin: ヘプシジンに特異的に結合する可能性が示された

## CSCC[C@@H]1NC(=O)[C@H](CO)NC(=O)[C@@H]2CCCN2C(=O)[C@H](Cc2c[nH]c3ccccc23)NC(=O)[C@H](CCSC)NC(=O)[C@H](CC(=O)O)NC(=O)[C@H](Cc2c[nH]c3ccccc23)NC(=O)[C@H](CO)NC(=O)[C@@H](NC(=O)[C@H](C)NC(C)=O)CSSC[C@@H](C(=O)NCC(N)=O)NC(=O)CNC(=O)[C@H](CCC(=O)O)NC(=O)[C@H](C)NC(=O)[C@H](CCCCN)NC(=O)[C@H](Cc2c[nH]c3ccccc23)NC(=O)[C@H](CC(=O)O)NC1=O [HBP, ACSWDMWPSMDWKAEGCG] (Ac-ACSWDMWPSMDWKAEGCG-NH2; disulfide 2-17)
[1]; [9]
  intracellular iron (as ferritin): 細胞内鉄量の増加が抑制された
[2]; peptide given simultaneously with hepcidin
  serum iron: 血中鉄量の減少が抑制された
[3]; [9]
  intracellular iron (as ferritin): 細胞内鉄量の増加が抑制された
[7]; [10]
  hematocrit (HCt): 有意に上昇した
  hemoglobin (Hb): 有意に上昇した
  red blood cell count (RBC): 有意に上昇した
[7]; AdS-induced renal failure mice, HBP day 15 to day 21, day 22, BUN, CRE, serum iron, TSAT, ferritin, CRP, hepcidin, EPO, Fig. 5A-H
  blood biochemistry showing improvement of anemia and renal failure: 貧血の改善及び腎不全の改善を示す結果が確認された
Hepcidin (ヘプシジン) [8]; biotinylated hepcidin on streptavidin sensor chip, read-out: dissociation constant
  Kd: 29 nM
Hepcidin (ヘプシジン) [8]; Fig. 3
  specific binding to hepcidin: ヘプシジンに特異的に結合することが確認された
[4]; peptide added simultaneously with human hepcidin, Fig. 6 lanes 4 and 5
  amount of ferroportin (FPN-EGFP): FPN-EGFP量の低下が抑制された
